SMILES strings stand for the structures.

The target of this assay is T1, CsSWEET17 (Citrus sinensis, UniProt A0ACB8I933).
T1 construct: gene KPL71_027705; full-length CDS (705 bp, about 235 residues) in pDR196, expressed in Saccharomyces cerevisiae CSY4000 (W303 for esculin); seven TMs
The assay is described as follows: […]-sucrose uptake in CSY4000 yeast, nonlinear Michaelis-Menten fit. The assay is classed as cell-based. Conditions: pH 5.5; 30 °C; proton-coupled transport; labelled compound.

T1 sequence (A0ACB8I933 entry or part of it): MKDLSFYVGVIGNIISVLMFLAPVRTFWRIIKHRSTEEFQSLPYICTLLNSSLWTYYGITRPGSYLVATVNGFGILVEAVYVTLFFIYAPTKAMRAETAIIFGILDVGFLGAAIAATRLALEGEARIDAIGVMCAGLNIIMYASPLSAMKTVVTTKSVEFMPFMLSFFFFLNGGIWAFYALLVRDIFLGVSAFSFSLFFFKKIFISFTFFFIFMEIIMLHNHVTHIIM

In the case of `OC[C@H]1O[C@@](CO)(O[C@H]2O[C@H](CO)[C@@H](O)[C@H](O)[C@H]2O)[C@@H](O)[C@@H]1O` [sucrose], the Km was 291 µM.

In general, Km refers to the concentration of substrate that gives half-maximal velocity.

These data come from paper PMC12528650, “The CsMYB36-CsSWEET17 module mediates the calcium-induced sucrose accumulation in citrus” (Horticulture Research, 2025).
